Entries after “also recorded” stand apart in the source; their conditions may differ.
Tests used:
[1] = tested on: TNFα; experiment: LPS-induced TNFα secretion from BV2 cells (CBA assay); assay type: cell-based, murine; conditions: for suppression of TNFα production vs control: 100 ng/mL LPS 24 hours
Description: Lipopolysaccharide (LPS) is a natural ligand of the TLR4/CD14 complex, which is highly expressed on myeloid cells
LPS was used to induce cytokine secretion from BV-2 cells. Cells were incubated with TQS-168 at various concentrations to assess whether TQS-168 could suppress the LPS-promoted release of various cytokines from in vitro cell cultures. Cytokine secretion was measured by cytometric bead array (CBA) fluorescence-activated cell sorting (FACS).
Briefly, a vial of BV2 frozen stock (1 million cells per ml in complete medium) was thawed into 10 mL of complete medium per vial for a total of 4 vials. The vials were then centrifuged at 1800 rpm for 3 minutes to wash away freezing media. The four vials were then pooled into 25 mL of complete medium. TQS-168 was prepared in DMSO.
Cells were incubated for 24 hours in the presence of medium (negative control), LPS (positive control), DMSO+LPS (positive control, controlling additionally for presence of DMSO in the TQS-168 stock solution), or LPS+TQS-168 at final concentrations of 1 μM, 5 μM, 10 μM, and 20 μM.
After the well plates were incubated overnight for 24 hours, they were centrifuged at 1800 rpm for 5 minutes. Next, 150 μl from each well was transferred to a new set of plates, of which 50 μl was used for CBA. The plates were then centrifuged with the cells, followed by addition of 100 μL of DAPI (50 ml of PBS+10 μL of DAPI stock at 1:5000 dilution). The plates were then incubated in the dark for 5 minutes, followed by addition of 100 μL of PBS and centrifuged at 1800 rpm for 5 minutes. Finally, the plates were resuspended in 200 μL of PBS and tested.
Multiplexed cytometric bead array (CBA) assay was performed according to standard techniques to detect presence in the cell culture medium of secreted murine TNFα, IL-6, IFNγ, IL-12, monocyte chemoattractant protein 1 (MCP-1), and IL-10.
A total of 4-11 replicates of BV2 cultures in different conditions were investigated. […]

[2] = tested on: TNFα; experiment: TNFα release by LPS-stimulated BV2 cells (ELISA); assay type: cell-based, murine
Description: First, 100 μL of supernatant was removed from Cell Plate and transferred to a Dilution Plate, which was then centrifuged at 216×g for 10 minutes to remove particulates. The dilution plate was either assayed immediately or aliquots were taken and stored at ≤−20° C.; repeated freeze-thaw cycles were avoided.
Next, a standard curve was prepared by first pipetting 900 ul of Calibrator Diluent RD5K into the […] tube, followed by 200 μl of the appropriate calibrator diluent in the remaining tubes. The stock solution was used to produce a dilution. The resulting tubes were then thoroughly mixed. The Mouse TNFα Standard ([…]) served as the high standard, and the Calibrator Diluent RD5T served as the zero standard at 0 pg/ml.
Assay Diluent RD1-63 (50 uL) was then added to the center of each well and mixed before and during its use. Then, 50 ul of either standard, control, or sample was added to the center of each well, and covered with adhesive strip. […]
Substrate solution (100 uL) was then added to each well, incubated in the dark for 30 minutes at room temperature, followed by addition of 100 μl of Stop Solution and mixed. The optical density of each well was determined within 30 minutes by using a microplate reader set to 450 nm.
Plates were read on a Spectrostar Nano machine with built-in MARS data analysis at […] and 570 nM. […]

[3] = tested on: TNF-α; experiment: LPS-induced TNF-α production by primary human myeloid cells (PBMC, CBA); assay type: cell-based; conditions: 100 ng/mL LPS, 24 hours
Description: Peripheral blood mononuclear cells (PBMC) from 4 different healthy volunteers were used in this study. Fresh blood samples were collected at Stanford Blood Center and processed for PBMC isolation with Ficoll gradient. PBMC samples were stored in liquid nitrogen at […] for subsequent analysis of TNF-α production. For TNF-α stimulation, frozen PBMC samples were thawed and rested at 37° C. before cells were stimulated with 100 ng/ml of LPS for 24 hours. DMSO (1:1000 final dilution) or TQS-168 in DMSO (1:1000 final dilution) at various concentrations was added to cell cultures of LPS-stimulated PBMC to evaluate the effects of T-168 on TNF-α production by human primary myeloid cells. After 24 hours stimulation, supernatant samples from various conditions were collected and TNF-α concentrations in the supernatants analyzed with cytometric bead array (CBA) assay per protocols from BD Biosciences. TNF-α was quantified by median fluorescent intensity reading (MFI). Samples were analyzed directly after staining with LSRII flow cytometer.

SMILES: CC(C)(C)c1ccc(-c2nc3ccccc3[nH]2)cc1 [TQS-168, 2-(4-tert-butylphenyl)-1H-benzimidazole]
- suppression of TNFα production vs control ([1]; 5 μM): can suppress TNFα production; also recorded: inhibition of TNFα production
- suppression of TNFα production vs control ([1]; 20 μM): can suppress TNFα production; also recorded: inhibition of TNFα production
- reduction of LPS-induced TNFα secretion, dose response ([1]; 1-20 μM): concentration-dependent; also recorded: dose-responsive inhibition
- suppression of TNFα production ([2]; BV-2 cells, 0.3 ng/mL LPS, 10 μM TQS-168, ELISA, 24 hours): about 25%
- inhibition at 10 µM ([2]; Mus musculus, BV-2, 24 h, read-out: inhibition of TNFα production): ~35%
- suppression of TNFα production vs no treatment ([3]; 5 μM): statistically significant suppression
- suppression of TNFα production vs no treatment ([3]; 20 μM): statistically significant suppression
